≈ marks a conversion by molar mass, not a printed value. Read-outs that look alike come from different tables or passages of the source.
Assays:
[1] = test system: E. coli ATCC 25922; experiment: Antimicrobial activity, modified microdilution; type: cell-based; details: Escherichia coli, ATCC25922
Description: (§1) For evaluating the antimicrobial activity of the compounds, […] aerobic microbial strains were used: S. aureus ATCC 25923, S. pyogenes ATCC 19615, P. aeruginosa ATCC 27853, S. enterica ISM 83/37, S. typhimurium ATCC 14028, E. coli ATCC 8739, E. coli ATCC 25922, and C. albicans ATCC 102310 obtained from Food Biotechnology Laboratory, Life Sciences Institute, University of Agricultural Sciences, and Veterinary Medicine Cluj Napoca, where the experiment was performed. The antimicrobial activity of the compounds was determined using a modified microdilution technique, and the followed protocol was previously reported.
(§2) The antimicrobial activity of the final compounds, against seven aerobic microbial strains (S. aureus ATCC 25923, S. pyogenes ATCC 19615, P. aeruginosa ATCC 27853, S. enterica ISM 83/37, S. typhimurium ATCC 14028, E. coli ATCC 8739, E. coli ATCC 25922), and a fungal strain (C. albicans ATCC 102310), was determined using a modified microdilution technique.
(§3) The results of the antimicrobial activity evaluation of the compounds, in comparison to norfloxacin and chloramphenicol used as standard antibiotics and fluconazole used as reference antifungal, are depicted in Table 10.

[2] = test system: E. coli ATCC 8739; experiment: Antimicrobial activity, modified microdilution; type: cell-based; details: Escherichia coli, ATCC8739
Description: as §1, §2, §3

[3] = test system: P. aeruginosa ATCC 27853; experiment: Antimicrobial activity, modified microdilution; type: cell-based; details: Pseudomonas aeruginosa, ATCC27853
Description: as §1, §2, §3

[4] = test system: S. aureus ATCC 25923; experiment: Antimicrobial activity, modified microdilution; type: cell-based; details: Staphylococcus aureus, ATCC25923
Description: as §1, §2, §3

[5] = test system: S. enterica ISM 83/37; experiment: Antimicrobial activity, modified microdilution; type: cell-based; details: Salmonella enterica, ISM83/37
Description: as §1, §2, §3

[6] = test system: S. pyogenes ATCC 19615; experiment: Antimicrobial activity, modified microdilution; type: cell-based; details: Streptococcus pyogenes, ATCC19615
Description: as §1, §2, §3

[7] = test system: S. typhimurium ATCC 14028; experiment: Antimicrobial activity, modified microdilution; type: cell-based; details: Salmonella enterica
Description: as §1, §2, §3

[8] = NO˙ radical scavenging assay (Griess reaction); type: biochemical; details: 100 µL of test solution 1 mg/mL in DMSO, 150 min, pH 7.4
Description: Scavenging of the NO˙ radical was performed according to some adapted protocols reported in the literature, based on the nitroprusside decomposition at physiological pH and colorimetric quantification of the resulted products using the Griess reaction.
Over 200 µL of 10 mM sodium nitroprusside, 100 µL of test solutions (1 mg/mL in DMSO), and 400 µL phosphate-buffered saline (PBS, pH = 7.4) were added. The mixture was then incubated at room temperature for 150 min on a rotating shaker (GFL Gesellschaft für Labortechnik, Burgwedel, Germany). After that, 1 mL of sulfanilic acid 0.33% in 20% acetic acid was added and after 5 min, 1 mL of naphthylethylenediamine […] 0.1% was added to all test tubes. After 30 min, the absorbance of the sample, given by the chromophore (azo dye) formed during the diazotization of nitrite ions resulting from decomposition of sodium nitroprusside with sulfanilic acid and coupled with naphthylethylenediamine, was measured at 546 nm. The NO˙ radical scavenging activity of the tested compounds was calculated using Equation (3):(3) NO˙ scavenging (%)=control absorbance−sample absorbance/control absorbance×100

[9] = test system: C. albicans ATCC 102310; experiment: Antifungal activity, modified microdilution; type: cell-based; details: Candida albicans, ATCC102310
Description: as §1, §2, §3

[10] = DPPH˙ radical scavenging assay; type: biochemical; details: for IC50: DPPH˙ scavenging
Description: The 2,2-diphenyl-1-picrylhydrazyl (DPPH˙) radical scavenging assay is based on the transfer of one hydrogen from the analyzed compound to the violet radical DPPH˙. This will convert it to a yellow compound, the change in absorbance being proportional to the amount of DPPH˙ neutralized, according to Brand-Williams et al..
The preparation of the DPPH˙ reagent was previously reported by our group. […] Over the previous quantities, DMSO was added until a total volume of 50 µL was obtained in all cuvettes, and 1950 µL of DPPH˙ solution was added to all cuvettes; then, they were shaken for well over 10 min in the dark at room temperature. The absorbances of the solutions were measured at λ = 517 nm. The DPPH˙ radical scavenging activity of evaluated compounds was calculated using Equation (2):(2) DPPH scavenging (%)=control absorbance−sample absorbance/control absorbance×100

[11] = ABTS˙^+ radical scavenging assay; type: biochemical
Description: The assay was based on the decolorization of green (2,2′-azinobis-(3-ethylbenzothiazoline-6-sulfonic acid) ABTS˙^+ to ABTS, on the principle reported by Re et al. and was carried out according to our previously published research.
Later, 1950 µL of ABTS˙^+ reagent was added to all cuvettes and they were shaken for well over 10 min in the dark at room temperature. The absorbance of the resulted solutions found in cuvettes was determined spectrophotometrically at λ = 734 nm. The ABTS scavenging activity of the compounds was calculated using the following Equation (1):(1) ABTS scavenging (%)=control absorbance−sample absorbance/control absorbance×100

[12] = TEMPO scavenging by differential pulse voltammetry; details: 2 mM TEMPO, one hour incubation, 0.1 M HClO4, DPV
Description: The antioxidant properties were evaluated in terms of their activity against some free radicals, and other compounds reported in the literature, relevant for this purpose, such as: • ferric ions (Fe^3+)—used to test the reduction of the antioxidant character of the compounds; • DPPH˙ free radical– used to test the scavenging effect of the compounds on this radical; • hydrogen peroxide (H2O2)—used to test the scavenging effect of the synthesized molecules on this compound; • 2,2,6,6-tetramethylpiperidinyl-1-oxy (TEMPO)—used to test the scavenging effect of the synthesized molecules on this compound.
TEMPO (2,2,6,6-tetramethylpiperidine-N-oxyl) is a stable organic nitroxide radical that has been reported to scavenge carbon-centered radicals.
Differential pulse voltammetry (DPV) was then applied in order to evaluate the antioxidant effectiveness of the novel compounds through their ability to scavenge the free radical species.

[13] = test system: HaCaT cells; experiment: Cytotoxicity determination, MTT method; type: cell-based; details: Homo sapiens, 24 h
Description: To determine the cytotoxic action of the obtained compounds 5[…], and 8a-b, a normal human keratinocytes cell line was used (HaCaT keratinocytes, CLS-300493, Eppelheim, Germany). HaCaT cells were cultured in Dulbecco's Modified Eagle Media (DMEM) supplemented with 1% L-glutamine, 1% penicillin-streptomycin, and 5% fetal bovine serum. At 80% confluence, the cells were transferred to 96 well plates at a confluence of 12×10^3 cells/well and left to attach for 24 h at 37°C and 5% CO2 in a humidified atmosphere. […] After 24 h, the culture media was replaced with 100 μL of MTT solution at a final concentration of 5 μg/mL/well and left to interact with the cells for 2 h in the incubator. After this, the MTT solution was replaced with 100 μL of isopropanol, left to dissolve the formazan crystals for 5 min, and read at 550 and 630 nm using a BioTek Epoch plate reader (BioTek Instruments, Winooski, VT, USA) and Gen5 software (version 1.09).

[14] = Fe^2+ chelation assay; type: biochemical
Description: The protocol used for assessing Fe^2+ chelating capacity of the compounds was adapted from a report of Benzie and Strain and previously reported by our group. The iron(II) chelation ability of compounds was calculated using Equation (7):(7) iron chelation (%)=control absorbance−sample absorbance/control absorbance×100
The chelating potential for the ferrous ions of the new compounds was determined, based on their competition for Fe^2+ with ferrozine.

[15] = Cu^2+ chelation assay; type: biochemical

## O=C(N[C@H](CO)[C@H](O)c1ccc([N+](=O)[O-])cc1)C(Cl)Cl [Chloramphenicol, reference compound]
[1]
  MIC: 3.9 µg/mL (≈ 12.1 µM)
[2]
  MIC: 7.8 µg/mL (≈ 24.1 µM)
[3]
  MIC: 0.48 µg/mL (≈ 1.49 µM)
[4]
  MIC: 7.8 µg/mL (≈ 24.1 µM)
[5]
  MIC: 3.9 µg/mL (≈ 12.1 µM)
[6]
  MIC: 3.9 µg/mL (≈ 12.1 µM)
[7]
  MIC: < 0.48 µg/mL

## O=C(O)c1cc(O)ccc1O [Gentisic acid, reference compound]
[8]
  % of NO˙ Scavenged: 47.33%

## OC(Cn1cncn1)(Cn1cncn1)c1ccc(F)cc1F [Fluconazole, reference compound]
[9]
  MIC: 31.2 µg/mL (≈ 102 µM)

## Cc1c(C)c2c(c(C)c1O)CCC(C)(C(=O)O)O2 (centres unmarked) [Trolox, reference compound]
[10]; 1 µg/mL
  % of DPPH˙ Scavenged: 10.83%
[10]; 1.5 µg/mL
  % of DPPH˙ Scavenged: 17.10%
[10]; 2 µg/mL
  % of DPPH˙ Scavenged: 20.56%
[10]; 3 µg/mL
  % of DPPH˙ Scavenged: 31.91%
[10]; 5 µg/mL
  % of DPPH˙ Scavenged: 53.67%
[10]
  IC50: 4.68 µg/mL (≈ 18.7 µM)
[8]
  % of NO˙ Scavenged: 32.12%

## O=C1O[C@H]([C@@H](O)CO)C(O)=C1O [Ascorbic acid, reference compound]
[11]; 0.5 µg/mL
  % of ABTS˙^+ Scavenged: 9.56%
[11]; 0.75 µg/mL
  % of ABTS˙^+ Scavenged: 14.32%
[11]; 1 µg/mL
  % of ABTS˙^+ Scavenged: 20.61%
[11]; 1.5 µg/mL
  % of ABTS˙^+ Scavenged: 38.24%
[11]; 2.5 µg/mL
  % of ABTS˙^+ Scavenged: 64.58%
[11]; ABTS˙^+ scavenging
  IC50: 1.97 µg/mL (≈ 11.2 µM)
[10]; 1 µg/mL
  % of DPPH˙ Scavenged: 19.39%
[10]; 1.5 µg/mL
  % of DPPH˙ Scavenged: 29.10%
[10]; 2 µg/mL
  % of DPPH˙ Scavenged: 38.27%
[10]; 3 µg/mL
  % of DPPH˙ Scavenged: 53.42%
[10]; 5 µg/mL
  % of DPPH˙ Scavenged: 80.28%
[10]
  IC50: 2.89 µg/mL (≈ 16.4 µM)
[12]
  oxidation signal for TEMPO after incubation with the compound: decreases
[13]; HaCaT
  IC50: 22.8 µg/mL
[13]; HaCaT cells, MTT, read-out: IC50
  IC50: 129 µM

## disodium salt of ethylenediaminetetraacetic acid [EDTA-Na2, reference compound]
[14]; 50 µg/mL
  Chelation Capacity (%), ferrous ions: 20.86%
[14]; 100 µg/mL
  Chelation Capacity (%), ferrous ions: 57.32%
[14]; 150 µg/mL
  Chelation Capacity (%), ferrous ions: >95.00%
[14]; 200 µg/mL
  Chelation Capacity (%), ferrous ions: >95.00%
[15]; 3.36 µg/mL
  Chelation Capacity (%), cupric ions: 12.36%
[15]; 6.72 µg/mL
  Chelation Capacity (%), cupric ions: 19.61%
[15]; 10.08 µg/mL
  Chelation Capacity (%), cupric ions: 29.97%
[15]; 13.44 µg/mL
  Chelation Capacity (%), cupric ions: 39.18%
[15]; 16.80 µg/mL
  Chelation Capacity (%), cupric ions: 45.86%

## CCn1cc(C(=O)O)c(=O)c2cc(F)c(N3CCNCC3)cc21 [Norfloxacin, reference compound]
[1]
  MIC: 7.8 µg/mL (≈ 24.4 µM)
[2]
  MIC: < 0.48 µg/mL
[3]
  MIC: 7.8 µg/mL (≈ 24.4 µM)
[4]
  MIC: 0.48 µg/mL (≈ 1.5 µM)
[5]
  MIC: < 0.48 µg/mL
[6]
  MIC: < 0.48 µg/mL
[7]
  MIC: < 0.48 µg/mL

Reference: publication PMC8615111, “Phenolic Thiazoles with Antioxidant and Antiradical Activity. Synthesis, In Vitro Evaluation, Toxicity, Electrochemical Behavior, Quantum Studies and Antimicrobial Screening” (Antioxidants, 2021)
